Source: US20260373266A1, “PROTEIN DEGRADERS AND USES THEREOF” (KYMERA THERAPEUTICS, INC., priority 2022, published 2026)

The compounds below were run against T1, DCAF1 WD40 domain (residues 1077-1390) (Homo sapiens, UniProt Q9Y4B6) (assay: DCAF1 binding assay by SPR (Biacore 8K+), DCAF1-3 KD). Details: 25 °C, read-out: DCAF1-3 SPR (KD).
T1 construct: DCAF1 WD40 domain (residues 1077-1390)
T1 sequence (Q9Y4B6 1077-1390): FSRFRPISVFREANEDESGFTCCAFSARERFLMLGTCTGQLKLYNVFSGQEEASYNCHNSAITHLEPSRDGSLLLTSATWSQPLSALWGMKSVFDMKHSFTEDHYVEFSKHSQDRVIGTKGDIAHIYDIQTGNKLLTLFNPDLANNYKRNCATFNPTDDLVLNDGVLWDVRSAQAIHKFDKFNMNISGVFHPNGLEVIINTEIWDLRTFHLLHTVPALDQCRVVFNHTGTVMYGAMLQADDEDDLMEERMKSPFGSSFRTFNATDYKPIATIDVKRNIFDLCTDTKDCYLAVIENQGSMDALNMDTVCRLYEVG

Kd | SMILES
> 200 µM | Fc1cccc(N[C@@H]2CCCN(c3cc(N4CCCCC4)ccn3)C2)c1 [I-645]
10 to 100 µM | O=c1[nH]cc(C2CCOCC2)cc1N[C@@H]1CCCN(c2cccc(F)c2)C1 [I-646]
10 to 100 µM | O=c1[nH]cc(C2=CCOCC2)cc1N[C@@H]1CCCN(c2cccc(F)c2)C1 [I-647]
< 10 µM | Cc1cccc(F)c1-c1c(C(=O)N[C@@H](CC(N)=O)c2cccc(Cl)c2)c[nH]c1C(=O)c1ncccn1 [I-648]
< 10 µM | NCCOCCOCCOCCC1CCN(c2ccnc(N3CC[C@@H]4[C@H]3CCCN4c3cccc(F)c3)c2)CC1 [I-649]
> 200 µM | NCCOCCOCCOCCOCCC1CCN(c2ccnc(N3CC[C@@H]4[C@H]3CCCN4c3cccc(F)c3)c2)CC1 [I-650]
< 10 µM | NCCOCCOCCOCCOCCOCCC1CCN(c2ccnc(N3CC[C@@H]4[C@H]3CCCN4c3cccc(F)c3)c2)CC1 [I-651]
< 10 µM | C=CC(=O)NC1CC2(CCN(c3ccnc(N[C@@H]4CCCN(c5cccc(F)c5)C4)c3)CC2)C1 [I-652]
< 10 µM | Cc1c(F)ccc(F)c1-c1c(C(=O)N[C@@H](CC(N)=O)c2cccc(Cl)c2)c[nH]c1C(=O)c1ccccc1 [I-653]
< 10 µM | COCCC1C2CCC1CN(c1ccnc(N[C@@H]3CCCN(c4cccc(F)c4)C3)c1)C2 (stereo partly drawn) [I-654]
> 200 µM | C=CC(=O)N1CCN(c2ccnc(N[C@@H]3CCCN(c4cccc(F)c4)C3)c2)CC1C(F)(F)F (stereo partly drawn) [I-655]
< 10 µM | Cc1cccc(F)c1-c1c(C(=O)N[C@@H](CC(N)=O)c2cccc(Cl)c2)c[nH]c1-c1ccccn1 [I-656]
< 10 µM | C=CC(=O)NC1CCC2(CC1)CCN(c1ccnc(N[C@@H]3CCCN(c4cccc(F)c4)C3)c1)CC2 [I-657]
10 to 100 µM | CC1(C)CCCCN1c1ccnc(N[C@@H]2CCCN(c3cccc(F)c3)C2)c1 [I-658]
10 to 100 µM | Fc1cccc(N2CC[C@@]3(CCN(c4cc(N5CCCCC5)ccn4)C3)C2)c1 [I-659]
> 200 µM | CN(c1cccc(F)c1)C1CCCN(c2cc(N3CCCCC3)ccn2)C1 (stereo not drawn) [I-660]
< 10 µM | NCCOCCOCCOCCOCCOCCOCCC1CCN(c2ccnc(N3CC[C@@H]4[C@H]3CCCN4c3cccc(F)c3)c2)CC1 [I-661]
> 200 µM | NCCCCCCCCCCCCCCCCCC(=O)c1[nH]cc(C(=O)N[C@@H](CC(N)=O)c2cccc(Cl)c2)c1-c1ccccc1F [I-662]
> 200 µM | NCCCCCCCCCCCCCCC(=O)c1[nH]cc(C(=O)N[C@@H](CC(N)=O)c2cccc(Cl)c2)c1-c1ccccc1F [I-663]
10 to 100 µM | C=CC(=O)NCCC1CCCN(c2ccnc(N[C@@H]3CCCN(c4cccc(F)c4)C3)c2)C1 (stereo partly drawn) [I-664]
10 to 100 µM | C=CC(=O)NCC1CCN(c2ccnc(N3CC[C@@H]4[C@H]3CCCN4c3cccc(F)c3)c2)CC1 [I-665]

Kd | SMILES
> 200 µM | C=CC(=O)NCCC1CCN(c2ccnc(N3CC[C@@H]4[C@H]3CCCN4c3cccc(F)c3)c2)CC1 [I-666]
10 to 100 µM | Fc1cccc(N2CC[C@@H]3CN(c4cc(N5CCCCC5)ccn4)C[C@@H]32)c1 [I-667]
10 to 100 µM | Fc1cccc(N2CCC[C@@H]3CN(c4cc(N5CCCCC5)ccn4)C[C@@H]32)c1 [I-668]
> 200 µM | O=C(Nc1nc2c(s1)CCCC2)[C@@H]1CCCN(c2cccc(F)c2)C1 [I-669]
> 200 µM | NCCCCCCCCCCCCCCCCCCCCC(=O)c1[nH]cc(C(=O)N[C@@H](CC(N)=O)c2cccc(Cl)c2)c1-c1ccccc1F [I-670]
< 10 µM | C=CC(=O)NCC1CCN(c2ccnc(N3CC[C@H]4[C@@H]3CCCN4c3cccc(F)c3)c2)CC1 [I-671]
< 10 µM | C=CC(=O)NCCC1CCN(c2ccnc(N3CC[C@H]4[C@@H]3CCCN4c3cccc(F)c3)c2)CC1 [I-672]
< 10 µM | CN(c1cccc(F)c1)[C@@H]1CCN(c2cc(N3CCCCC3)ccn2)C1 [I-673]
< 10 µM | NCCOCCOCCOCCOCC(=O)c1[nH]cc(C(=O)N[C@@H](CC(N)=O)c2cccc(Cl)c2)c1-c1ccccc1F [I-674]
< 10 µM | NCCOCCOCCOCCOCCOCC(=O)c1[nH]cc(C(=O)N[C@@H](CC(N)=O)c2cccc(Cl)c2)c1-c1ccccc1F [I-675]
< 10 µM | NCCOCCOCCOCCOCCOCCOCC(=O)c1[nH]cc(C(=O)N[C@@H](CC(N)=O)c2cccc(Cl)c2)c1-c1ccccc1F [I-676]
10 to 100 µM | c1cc(N2CCOCC2)cc(N[C@@H]2CCCN(c3ccc(OCCN4CCCC4)nc3)C2)n1 [I-677]
10 to 100 µM | c1cc(N2CCOCC2)cc(N[C@@H]2CCCN(c3nccc(N4CCCC4)n3)C2)n1 [I-678]
> 200 µM | Clc1cc(N2CCC[C@@H](Nc3cc(N4CCOCC4)ccn3)C2)nc(C2CC2)n1 [I-679]
100 to 200 µM | c1ccc(Cn2ccc3c(N4CCC[C@@H](Nc5cc(N6CCOCC6)ccn5)C4)ncnc32)cc1 [I-680]
10 to 100 µM | Clc1nc2c(c(N3CCC[C@@H](Nc4cc(N5CCOCC5)ccn4)C3)n1)CCNC2 [I-681]
< 10 µM | Nc1ccc(F)cc1N1CCC[C@@H](Nc2cc(N3CCOCC3)ccn2)C1 [I-682]
10 to 100 µM | N[C@@H](c1ccccc1)c1ccc(N2CCC[C@@H](Nc3cc(N4CCOCC4)ccn3)C2)cc1 [I-683]
10 to 100 µM | c1cc(N2CCOCC2)cc(N[C@@H]2CCCN(c3ncnc4c3ncn4[C@@H]3CCCCO3)C2)n1 [I-684]
> 200 µM | c1ccc(-c2nc3cccc(N4CCC[C@@H](Nc5cc(N6CCOCC6)ccn5)C4)c3o2)cc1 [I-685]
> 200 µM | CN1CCN(c2ccc(N3CCC[C@@H](Nc4cc(N5CCOCC5)ccn4)C3)nc2)CC1 [I-686]

Kd | SMILES
10 to 100 µM | c1cc(N2CCOCC2)cc(N[C@@H]2CCCN(c3ccnc(OC4CC4)c3)C2)n1 [I-687]
> 200 µM | c1ccc(-n2cnc3cc(N4CCC[C@@H](Nc5cc(N6CCOCC6)ccn5)C4)ccc32)cc1 [I-688]
< 10 µM | c1cc(CN2CCCC2)cc(N2CCC[C@@H](Nc3cc(N4CCOCC4)ccn3)C2)c1 [I-689]
> 200 µM | c1ccc(COc2cccc(N3CCC[C@@H](Nc4cc(N5CCOCC5)ccn4)C3)c2)cc1 [I-690]
10 to 100 µM | OCCc1ccc(N2CCC[C@@H](Nc3cc(N4CCOCC4)ccn3)C2)nc1 [I-691]
100 to 200 µM | c1cn(Cc2ccc(N3CCC[C@@H](Nc4cc(N5CCOCC5)ccn4)C3)cc2)cn1 [I-692]
10 to 100 µM | CC(C)CNc1ccc(N2CCC[C@@H](Nc3cc(N4CCOCC4)ccn3)C2)cc1 [I-693]
> 200 µM | CCCn1cc(N2CCC[C@@H](Nc3cc(N4CCOCC4)ccn3)C2)cn1 [I-694]
10 to 100 µM | c1csc(-c2ccc(N3CCC[C@@H](Nc4cc(N5CCOCC5)ccn4)C3)cc2)c1 [I-695]
10 to 100 µM | OCc1cnc2ccc(N3CCC[C@@H](Nc4cc(N5CCOCC5)ccn4)C3)nn12 [I-696]
10 to 100 µM | O=C(O)C1(c2cccc(N3CCC[C@@H](Nc4cc(N5CCOCC5)ccn4)C3)c2)CCCC1 [I-697]
10 to 100 µM | COc1ccc(-c2ccncc2)cc1N1CCC[C@@H](Nc2cc(N3CCOCC3)ccn2)C1 [I-698]
< 10 µM | Cc1cccc(F)c1-c1c(C(=O)N[C@@H](CC(N)=O)c2cccc(Cl)c2)c[nH]c1C(=O)c1ccccn1 [I-699]
< 10 µM | Cc1cccc(F)c1-c1c(C(=O)N[C@@H](CC(N)=O)c2cccc(Cl)c2)c[nH]c1C(=O)c1cccc(N2CCCCC2)c1 [I-700]
< 10 µM | OC1CCCN(c2ccnc(N[C@@H]3CCCN(c4cccc(F)c4)C3)c2)C1 (stereo partly drawn) [I-701]
< 10 µM | Cc1c(F)ccc(F)c1-c1c(C(=O)N[C@@H](CC(N)=O)c2cccc(Cl)c2)c[nH]c1C(=O)c1cccc(-c2ccccc2)c1 [I-702]
> 200 µM | Fc1cccc(N2CCC[C@@H]3[C@H]2CCCN3c2cc(N3CCCCC3)ccn2)c1 [I-703]
> 200 µM | COCCOCC[C@@H]1CCCN(c2ccnc(N3CC[C@@H]4[C@H]3CCCN4c3cccc(F)c3)c2)C1 [I-704]
100 to 200 µM | C=CC(=O)NCCCC1CCN(c2ccnc(N3CC[C@@H]4[C@H]3CCCN4c3cccc(F)c3)c2)CC1 [I-705]
< 10 µM | Cc1cccc(N2CCC[C@@H]3[C@H]2CCN3c2cc(N3CC4CC(C4)C3)ccn2)c1 [I-706]
> 200 µM | Clc1cccc(N2CCC[C@@H]3[C@H]2CCN3c2cc(N3CC4CC(C4)C3)ccn2)c1 [I-707]

Kd | SMILES
< 10 µM | c1ccc(N2CCC[C@@H]3[C@H]2CCN3c2cc(N3CC4CC(C4)C3)ccn2)cc1 [I-708]
10 to 100 µM | Oc1ccc(N2CCC[C@@H]3[C@H]2CCN3c2cc(N3CC4CC(C4)C3)ccn2)cc1 [I-709]
10 to 100 µM | c1ccc(N2CCC[C@H]3[C@@H]2CCN3c2cc(N3CC4CC(C4)C3)ccn2)cc1 [I-710]
10 to 100 µM | Cc1cccc(N2CCC[C@H]3[C@@H]2CCN3c2cc(N3CC4CC(C4)C3)ccn2)c1 [I-711]
< 10 µM | C=CC(=O)NCCCC1CCN(c2ccnc(N3CC[C@H]4[C@@H]3CCCN4c3cccc(F)c3)c2)CC1 [I-712]
10 to 100 µM | COCCOCC[C@H]1CCCN(c2ccnc(N3CC[C@@H]4[C@H]3CCCN4c3cccc(F)c3)c2)C1 [I-713]
10 to 100 µM | COCCOCC[C@@H]1CCCN(c2ccnc(N3CC[C@H]4[C@@H]3CCCN4c3cccc(F)c3)c2)C1 [I-714]
< 10 µM | COCCOCC[C@H]1CCCN(c2ccnc(N3CC[C@H]4[C@@H]3CCCN4c3cccc(F)c3)c2)C1 [I-715]
10 to 100 µM | Oc1ccc(N2CCC[C@@H](Nc3cc(N4CCCCC4)ccn3)C2)cc1F [I-716]
< 10 µM | Clc1cccc(N2CCC[C@H]3[C@@H]2CCN3c2cc(N3CC4CC(C4)C3)ccn2)c1 [I-717]
< 10 µM | Oc1ccc(N2CCC[C@H]3[C@@H]2CCN3c2cc(N3CC4CC(C4)C3)ccn2)cc1 [I-718]
> 200 µM | NCCCCCCCCCCCCCCCCCC1CCN(c2ccnc(N3CC[C@@H]4[C@H]3CCCN4c3cccc(F)c3)c2)CC1 [I-719]
< 10 µM | Fc1cccc(N2CCC[C@H]3[C@@H]2CCCN3c2cc(N3CCCCC3)ccn2)c1 [I-720]
< 10 µM | NCCCCCCCCCCCC1CCN(c2ccnc(N3CC[C@@H]4[C@H]3CCCN4c3cccc(F)c3)c2)CC1 [I-721]
> 200 µM | COc1ccc(N2CCC[C@@H]3[C@H]2CCN3c2cc(N3CC4CC(C4)C3)ccn2)cc1F [I-722]
< 10 µM | C[C@H]1CCCC[C@H]1c1[nH]ncc1C(=O)N[C@@H](CC(N)=O)c1cccc(Cl)c1 [I-723]
< 10 µM | C[C@@H]1CCCCC1c1[nH]ncc1C(=O)N[C@@H](CC(N)=O)c1cccc(Cl)c1 (stereo partly drawn) [I-724]
10 to 100 µM | NCCCCCCCCCCCCCCC1CCN(c2ccnc(N3CC[C@@H]4[C@H]3CCCN4c3cccc(F)c3)c2)CC1 [I-725]
